Experimental data taken from patent publication US20100285139A1, “PHARMACEUTICAL COMPOSITION FOR THE PROPHYLAXIS AND/OR SYMPTOMATIC TREATMENT OF CYSTIC FIBROSIS” (CYCNAD GMBH & CO., KG, priority 2007, published 2010).

Key:
ceramide = experiment: Pulmonary ceramide concentration in lung extracts of treated mice; format: in vivo
Procedure: The inhalation was carried out with the aid of an inhaler (Pariboy® SX). The liquid reservoir in this inhaler was connected to an air nozzle, whereby it was possible to produce a fine aerosol which was inhaled through a mask by the mice. For this, the noses of the experimental animals were pressed manually into the opening of the mask for 10 minutes. This permitted excellent control of the inhalation process. All mice were subjected to an inhalation process 3 times at an interval of 12 hours.
After killing the experimental animals, the lungs were removed, homogenized under liquid nitrogen and added to a mixture of chloroform, methanol and 1N hydrochloric acid (100:100:1, v/v/v). After addition of 200 μl of H2O, the samples were centrifuged for 5 minutes (14,000 rpm, rotations per minute). The lower phase was then collected, dried and subjected to an alkaline hydrolysis of diacylglycerol in 0.1 N methanolic potassium hydroxide solution at 37° C. for 60 minutes. The samples were extracted again, and the lower phase was dried and subsequently resuspended in 20 μl of a detergent solution (7.5% (w/v) of n-octylglucopyranoside, 5 mM cardiolipin in 1 mM diethylenetriaminepentaacetic acid (DTPA)). After an ultrasound treatment (10 minutes), the samples were added to 70 μl of a reaction mixture which contained 10 μl of diacylglycerol kinase (GE Healthcare Europe, Munich, Germany), 0.1 M imidazole/HCl (pH 6.6), 0.2 mM diethylenetriaminepentaacetic acid (pH 6.6), 70 mM sodium chloride, 17 mM magnesium chloride, 1.4 mM EGTA, 2 mM DTT, 1 μM ATP and 10 μCi of [^32P]γATP. The kinase reaction was carried out for 30 minutes at room temperature and subsequently ended by addition of 1 ml of chloroform:methanol:1 N HCl (100:100:1, v/v/v), 170 μl of buffered saline solution (135 mM sodium chloride, 1.5 mM calcium chloride, 0.5 mM magnesium chloride, 5.6 mM glucose, 10 mM HEPES, pH 7.2) and 30 μl of a 100 mM EDTA solution. The samples were then vortexed and the resulting phases were separated. […] The incorporation of [^32P] in ceramide was quantified by means of liquid scintillation counting, since the spots […]. The amounts of ceramide were determined by comparison with a standard curve using C16-ceramide as substrate.
(§1) Wild-type mice and Cftr-deficient mice were inhaled with a solution of 4 mg/l of amitriptyline, 12.5 mg/l of trimipramine, 9 mg/l of desipramine, 8 mg/l of chlorprothixene, 4.5 mg/l of fluoxetine, 5 mg/l of amlodipine and 35 mg/l of sertraline. […] The lungs were removed from the experimental animals 60 minutes after the inhalation, and the pulmonary ceramide concentration in the lung extracts was determined. […]

Pseudomonas aeruginosa = experiment: Susceptibility to infection: Pseudomonas aeruginosa bacterial count in the lung after intranasal infection; format: in vivo, mice
Procedure: The bacteria were cultured for 14 to 14.5 hours on TSA agar plates (Becton Dickinson). Fresh plates were used for at most 2 weeks for this. The bacteria were then transferred to Erlenmeyer flasks in 40 ml of a prewarmed and sterile buffer (TSB, Becton Dickinson). The optical density (OD) or extinction was adjusted to 0.225 (corresponds to 5.5×10^8 CFU/ml) and the bacteria were incubated for 60 minutes at 37° C. with shaking at 125 rpm. The quality of the agar plates and of TSB and the shaking speed were crucial for the obtainment of reproducible results. In this way, it was possible to obtain a Pseudomonas aeruginosa population exactly in the early log phase (the bacteria replicated approximately by 10-fold within an incubation time of 60 minutes). The fact that the bacteria were bacteria of the early log phase was extremely important to obtain reproducible conditions for the subsequent infection with the experimental animals. The bacteria were centrifuged at 2800 rpm (1600×g) in a 50 ml tube. The supernatant was then carefully removed and the bacteria were resuspended in 10 ml of RPMI-1640, supplemented with 10 mM HEPES (pH 7.3). The suspension was transferred to a 15 ml tube and subsequently washed twice. Finally, the bacteria were resuspended in prewarmed HEPES/salt (HS; 132 mM NaCl, 20 mM HEPES (pH 7.4), 5 mM KCl, 1 mM CaCl2, 0.7 mM MgCl2, 0.8 mM MgSO4) and the bacterial optical density was determined. The bacteria were then diluted with prewarmed H/S to a concentration of 10^8 CFU/20 μl . The mice were then infected within the next 10 minutes. For this purpose, a syringe with a volume of 1 ml and a 30 gauge needle was used. The mice were anesthetized in ether for 10 to 15 seconds. Following this, the needle was immediately inserted 2 mm into the noses of the mice and the bacteria were carefully injected. Between the first and the last mouse which were infected, a time interval of at most 10 minutes was allowed to pass to avoid variations in the formation of viable bacterial colonies in this way. […] Subsequently, the number of bacteria in the lung was measured as a measure of the sensitivity of the mice to developing a Pseudomonas aeruginosa infection. […] The bacterial colonies were counted after 15 hours growth at 37° C. as a measure of the number of pulmonary bacteria and thus as a measure of an infection.
as §1, with “susceptibility to infection of the experimental animals” for “pulmonary ceramide concentration”, “relation to Pseudomonas aeruginosa” for “the lung extracts”

acid sphingomyelinase = molecular target: T1, acid sphingomyelinase (Mus musculus, UniProt Q04519); experiment: Activity of acid sphingomyelinase in lung extracts of treated mice; format: in vivo
T1 construct: from tissue; host or cells: lung homogenate of wild-type and Cftr-deficient mice
T1 sequence (Q04519 45-627): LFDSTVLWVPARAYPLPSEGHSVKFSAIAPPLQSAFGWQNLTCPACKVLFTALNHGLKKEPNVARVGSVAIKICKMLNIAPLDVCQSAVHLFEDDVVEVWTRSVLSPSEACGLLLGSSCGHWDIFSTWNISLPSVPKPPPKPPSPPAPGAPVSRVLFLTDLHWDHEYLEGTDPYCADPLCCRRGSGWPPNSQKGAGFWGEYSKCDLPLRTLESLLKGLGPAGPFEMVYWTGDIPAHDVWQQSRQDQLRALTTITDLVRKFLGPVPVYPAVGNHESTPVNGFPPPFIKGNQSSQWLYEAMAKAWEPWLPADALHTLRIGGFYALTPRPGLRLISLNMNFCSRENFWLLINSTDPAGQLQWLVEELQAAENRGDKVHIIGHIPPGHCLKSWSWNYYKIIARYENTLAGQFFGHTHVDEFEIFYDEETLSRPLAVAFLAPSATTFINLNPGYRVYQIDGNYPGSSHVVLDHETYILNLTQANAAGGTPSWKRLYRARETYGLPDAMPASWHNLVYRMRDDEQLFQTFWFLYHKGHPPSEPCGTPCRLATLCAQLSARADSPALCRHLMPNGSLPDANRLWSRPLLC
Procedure: The inhalation was carried out with the aid of an inhaler (Pariboy® SX). The liquid reservoir in this inhaler was connected to an air nozzle, whereby it was possible to produce a fine aerosol which was inhaled through a mask by the mice. For this, the noses of the experimental animals were pressed manually into the opening of the mask for 10 minutes. This permitted excellent control of the inhalation process. All mice were subjected to an inhalation process 3 times at an interval of 12 hours. The lungs were shock-frozen, homogenized under liquid nitrogen and subsequently transferred to a buffer of 250 mM sodium acetate (pH 5.0), 1.3 mM EDTA and 1% NP40. The homogenizate was then subjected to ultrasound treatment (ultrasonic processor tip sonicator) a total of three times. Subsequently, an aliquot of the samples was diluted with 250 mM sodium acetate (pH 5.0), 1.3 mM EDTA 0.1% NP40 and incubated with 0.05 μCi of [^14C]sphingomyelin per sample (52 mCi/mmol; […] The radioactive sample of [^14C]sphingomyelin was dried, resuspended in 250 mM sodium acetate (pH 5.0), 1.3 mM EDTA and 0.1% NP40 and subsequently subjected to ultrasound treatment for 10 minutes, before it was added to the homogenized samples. The samples were incubated for 30 minutes in total at about 37° C. Subsequently, the enzymatic reaction was ended by extraction (extraction with a solvent mixture of chloroform and methanol in the volume ratio chloroform/methanol 2:1). The samples were then centrifuged and an aliquot of the aqueous phase was in each case subjected to scintillation counting to determine the release of [^14C]phosphorylcholine from [^14C] sphingomyelin. Wild-type mice and Cftr-deficient mice (Cftr-knockout mice) inhaled a solution of 4 mg/l of amitriptyline, 12.5 mg/l of trimipramine, 9 mg/l of desipramine, 8 mg/l of chlorprothixene, 4.5 mg/l of fluoxetine, 5 mg/l of amlodipine and 35 mg/l of sertraline. All substances were dissolved in water or DMSO for this and subsequently diluted at least 1:100 (for DMSO: at least 1:1000) in 0.9% sodium chloride solution. The mice inhaled the solutions for 10 minutes. An inhaler (Pariboy®) was used for the inhalation. In the course of the inhalation time, approximately 2 ml of the solutions administered were atomized. The inhalation was carried out a total of three times at intervals of 12 hours. The lungs were removed 60 minutes after the last inhalation, and the activity of the acid sphingomyelinase was determined in the lung extracts. Wild-type mice and Cftr-deficient mice were in each case inhaled 1 ml of an amitriptyline solution (4 mg/l of H2O) for 20 minutes with the aid of a customary pharmacy inhalation device. The amount of amitriptyline actually administered was therefore about 4 μg. In parallel to this, other wild-type mice and Cftr-deficient mice were in each case administered 100 μl of an amitriptyline solution (2.5 g/l of H2O), so that the amount of amitriptyline actually administered in these animals was 250 μg. The injections were administered twice daily over 2 days. In the case of the inhalative treatment, the lungs of the mice were extracted 60 minutes or 12 hours after ending the inhalation, where in the case of the 12-hour experiments the inhalation was repeated after 6 hours. In the case of the mice treated by an injection solution, their lungs were removed 12 hours after the last injection.

- enzyme activity of acid sphingomyelinase in lung extracts (acid sphingomyelinase; Cftr-deficient mice, 12 h after intraperitoneal injection of 250 micrograms, twice daily over 2 days): 151±17 pmol/min/mg of protein
- enzyme activity of acid sphingomyelinase in lung extracts (acid sphingomyelinase; Cftr-deficient mice, lungs extracted 60 min after inhalation of 1 ml amitriptyline solution (4 mg/l)): 148±17 pmol/min/mg of protein
- enzyme activity of acid sphingomyelinase in lung extracts (acid sphingomyelinase; Cftr-deficient mice, lungs extracted 12 h after inhalation of 1 ml amitriptyline solution (4 mg/l)): 167±9 pmol/min/mg of protein
- enzyme activity of acid sphingomyelinase in lung extracts (acid sphingomyelinase; wild-type mice, 12 h after intraperitoneal injection of 250 micrograms, twice daily over 2 days): 168±19 pmol/min/mg of protein
- enzyme activity of acid sphingomyelinase in lung extracts (acid sphingomyelinase; wild-type mice, lungs extracted 60 min after inhalation of 1 ml amitriptyline solution (4 mg/l)): 176±18 pmol/min/mg of protein
- enzyme activity of acid sphingomyelinase in lung extracts (acid sphingomyelinase; wild-type mice, lungs extracted 12 h after inhalation of 1 ml amitriptyline solution (4 mg/l)): 200±14 pmol/min/mg of protein
Structure (SMILES): CN(C)CCC=C1c2ccccc2CCc2ccccc21 [amitriptyline]
- ceramide concentration in lung extracts (ceramide; Cftr-deficient mice, 12 h after inhalation of 1 ml amitriptyline solution (4 mg/l)): 5.2±0.79 pmol/μg of protein
- ceramide concentration in lung extracts (ceramide; Cftr-deficient mice, parenterally treated, 12 h after intraperitoneal injection of 250 micrograms): 4.9±0.7 pmol/μg of protein
- ceramide concentration in lung extracts (ceramide; wild-type mice, 12 h after inhalation of 1 ml amitriptyline solution (4 mg/l)): 1.6±0.3 pmol/μg of protein
- ceramide concentration in lung extracts (ceramide; wild-type mice, parenterally treated, 12 h after intraperitoneal injection of 250 micrograms): 1.5±0.4 pmol/μg of protein
- bacterial count in the lungs (Pseudomonas aeruginosa; Cftr-deficient mice, treated by inhalation (4 mg/l solution), 2 h after intranasal infection with 1×10^8 CFU P. aeruginosa strain 762): 12300±4075 CFU
- bacterial count in the lungs (Pseudomonas aeruginosa; Cftr-deficient mice, treated by injection solution (250 micrograms i.p.), 2 h after intranasal infection): 11250±2360 CFU
- bacterial count in the lungs (Pseudomonas aeruginosa; wild-type mice, treated by inhalation (4 mg/l solution), 2 h after intranasal infection with 1×10^8 CFU P. aeruginosa strain 762): 3600±2892 CFU
- bacterial count in the lungs (Pseudomonas aeruginosa; wild-type mice, treated by injection solution (250 micrograms i.p.), 2 h after intranasal infection): 2780±1740 CFU
